In a melting point compilation (Tetko et al.; mined from patent text by program, amines drawn as free bases though some values may be those of a salt):

| SMILES | melting point |
| --- | --- |
| COC(=O)c1ccc2c(c1)C(=O)C(CC=O)C2 (racemic) | 92 °C |
| CCN(CCCCN)c1ccc2c(=O)[nH][nH]c(=O)c2c1 | 255 to 257 °C |
| FC(F)(F)c1ccc2nnc(-c3c(Cl)cccc3Cl)n2c1 | 104 to 105 °C |
| Cc1nc2cc(NC(=O)c3ccccc3O)ccc2o1 | 202 to 206 °C |
| COc1cc(O)ccc1/C=C/C(=O)CC(=O)/C=C/c1cc(OCc2ccccc2)ccc1-c1ccccc1 | 175 to 180 °C |
| Cn1ccc(=O)c(OCc2ccccc2)c1C(O)c1ccccn1 (centres undefined) | 202 to 204 °C |
| Cc1ccc(C(=O)C2=C(O)C(=O)N(c3ccc(C)cn3)C2c2ccc(C(C)C)cc2)cc1 (centres undefined) | 259 to 261 °C |
| CC(=O)CCCCN1CCN(c2ncccn2)CC1 | 44 to 47 °C |
| O=S(=O)(CC(F)(F)F)Nc1cccc2c1CCCC2c1c[nH]cn1 (single isomer, unassigned; (+)) | > 260 °C |
| COc1ccc(C2CSc3ccccc3NC2=O)cc1OC (centres undefined) | 174 °C |
| CC(C)(C)c1nn(-c2c(F)cc(Cl)c3nc(Cl)sc23)c(=O)o1 | 157 to 158 °C |
| COc1ccc(N2CCN(c3ccc([N+](=O)[O-])cn3)CC2)cc1 | 165 to 166 °C |
| C1=C(c2cccc(CNCCOc3cccc4ccoc34)c2)CCC1 | 126 °C |
| CC(C)(Cn1cnc2c(N)nc3ccccc3c21)C(N)=O | 287 to 289 °C |
| Cc1cccc(CC(=O)c2ccnc(-c3ccc(N4CCOCC4)cc3)c2)n1 | 114 °C |
| CCC1c2cccn2-c2c(cc(F)c(F)c2F)N1S(=O)(=O)c1ccc(O)cc1 (centres undefined) | 155 to 156 °C |
| COc1cc(Oc2cccc(OC(F)(F)F)c2)nc(C(=O)O)c1 | 64 to 66 °C |
| O=C(c1ccco1)N1CCN[C@@H]2CCCC[C@@H]21 | 47 to 50 °C |
| COCCOCCOC(=O)C#CC(=O)c1cc(OC)c(OC)c(OC)c1 | 33 to 34 °C |
| O=C(/C=C/c1ccc(O)c(C(F)(F)F)c1)/C=C/c1ccc(O)c(C(F)(F)F)c1 | 233 to 234 °C |
| CCCCOc1cc2c3c(ccc4c5ccc6c7c(cc(OCCCC)c(c1c34)c75)-c1ccccc1C6=O)C(=O)c1ccccc1-2 | 275 to 280 °C |
| CNC(CC(C)C)c1nc(-c2ccc3c(c2)Nc2ccccc2O3)cs1 (centres undefined) | 143 to 147 °C |
| O=C1C2=NCCCN2c2cc(Cl)ccc21 | 164 to 167 °C |
| CCCCCC/C=C/c1cccc(CCC(COC(C)=O)(COC(C)=O)NC(C)=O)c1 | 84 to 86 °C |
| O=C1CCCc2c1c1cccc(Cl)c1n2Cc1ccc(F)cc1 | 166 °C |

| SMILES | melting point |
| --- | --- |
| Oc1cccc(-c2ccccc2-c2nc(-c3ccccc3)c(-c3ccccc3)o2)c1 | 125 to 128 °C |
| O=C(CCc1ccccc1)C(Cc1ccccc1)C(=O)CCc1ccccc1 | 74 to 75 °C |
| O=C(Oc1n[nH]c(=O)c2nc3cc(Cl)ccc3c(O)c12)c1ccccc1 | 348 to 353 °C |
| C[Si](Cl)(Cl)C(c1ccccc1)(c1ccccc1)c1ccccc1 | 170 to 172 °C |
| O=C(Nc1ccc2c(c1)C(=O)CCCC2)OCc1ccccc1 | 120 to 121 °C |
| CCCCC1(COC(=O)C(C)(C)C)C(=O)N(c2ccccc2)N(c2ccccc2)C1=O | 116 to 117 °C |
| COc1ccc(Nc2nn3c(-c4ccc(OC)cc4)nnc3c3ccccc23)cc1 | 301 to 304 °C |
| CCOC(=O)c1cn(-c2ccc(F)cc2)nc1C | 103 to 104 °C |
| O=C(CC1CCN(Cc2ccccc2)CC1)c1ccc(N2CCCC2)cc1 | 110 to 112 °C |
| CNC1(Cc2ccccc2)C(=O)Nc2ccc(Cl)cc21 (centres undefined) | 196 °C |
| CNCC1Cc2cccc(-c3c(C)cccc3C)c2O1 (centres undefined) | > 250 °C |
| CC(C)(C)OC(=O)NCCON=C(C(=O)O)c1cccs1 | 113 to 114 °C |
| O=C1C(=CO)COc2ccc(OCc3ccccc3)cc21 | 82 to 85 °C |
| N[C@@H](Cc1ccccc1)C(=O)NC(=O)OCc1ccccc1 | 158 to 160 °C |
| CCOC(=O)[C@](CC(=O)OC1CC(C)CCC1C(C)C)(NC(=O)OCc1ccccc1)C(N)=O (some centres undefined) | 124 °C |
| Nc1c(F)cc(C=O)c(F)c1Br | 132 to 133 °C |
| CC(NC(=O)OC(C)(C)C)C(=O)NC1CCN(Cc2ccccc2)C1 (centres undefined) | 83 to 85 °C |
| O=C(Nc1nc2ccc(Sc3cnc4ncccn34)cc2s1)c1ccccc1 | > 260 °C |
| C[C@]1(COc2ccc(N3CCC(N4CCN(c5ccc(Cl)cc5)CC4)CC3)cc2)Cn2cc([N+](=O)[O-])nc2O1 | 247 to 249 °C |
| CCNC(=O)Nc1c(Cl)cccc1[Si](C)(C)C | 161 to 163 °C |
| N#CC1C(=O)NC(=O)C(C(=O)OCc2ccccc2)C12CCCCC2 (centres undefined) | 153 to 156 °C |
| CCOC(=O)c1cnc2n(c1=O)C(C)CC=C2NC (centres undefined) | 141 to 142 °C |
| C1=C(CC2=NCCN2)CCc2ccccc21 | 221 to 223 °C |
| CC1(C)C(C=C(Cl)Cl)C1C(N)=O (centres undefined) | 78 to 81 °C |
| CC(C)(C)OC(=O)N1C[C@@H]2OCc3c(-c4ccccc4)nnn3[C@H]2C1 | 236 to 237 °C |

| SMILES | melting point |
| --- | --- |
| CC(C)(CCl)C(=O)N(O)Cc1ccccc1Br | 119 to 121 °C |
| CS(=O)(=O)c1ccc(-n2nc(C(F)(F)F)cc2-c2ccc(-c3ccco3)cc2)cc1F | 129 to 130 °C |
| CC[C@@](O)(CC(=O)N1C(=O)O[C@@H](c2ccccc2)[C@H]1c1ccccc1)c1ccnc(OC)c1COCc1ccccc1 | 61 °C |
| O=S(=O)(NCC1CCN(C[C@H]2COc3ccc(C(F)(F)F)cc3O2)CC1)c1cccc(Cl)c1Cl | 139 to 140 °C |
| NS(=O)(=O)c1ccc(-n2nc(CF)cc2-c2ccccc2)cc1 | 162 to 163 °C |
| [O-][N+]1=C(c2ccccc2F)c2cc(Cl)ccc2-n2cnc(N3CCCC3)c2C1 | 190 to 192 °C |
| CSCCCCCn1c(C)nc2c(N)nc(C)c(C)c21 | 121 to 122 °C |
| Nc1ccccc1Oc1ccccc1C(=O)O | 150 to 151 °C |
| Nc1ccc2c(c1)C(=O)N(c1cccc(C(=O)O)c1)C2=O | 306 to 308 °C |
| COc1ccc(Nc2cncc(-c3cccc(NC(=O)c4ccccc4)c3)c2)cc1 | 135 to 140 °C |
| CC(=O)Nc1cccc(-c2cnc3[nH]cc(C(=O)C(C)(C)C)c3n2)c1 | 249 to 250 °C |
| Cn1cncc1C(N)(c1ccc(C#N)cc1)c1ccc2c(c1)c(-c1cccc(Cl)c1)cc(=O)n2C (centres undefined) | 245 °C |
| CCc1nc2ccc(F)cc2c(OC(=O)C2CC2)c1C | 86 to 87 °C |
| CCOC(=O)c1c(NC(=O)C(F)(F)F)c2cccnc2n(CC)c1=O | 195 to 197 °C |
| CS(=O)(=O)Nn1c(=O)[nH]c2cc([N+](=O)[O-])c(-n3cccc3)cc2c1=O | 243 to 250 °C |
| CCOC(=O)c1c(C(F)(F)F)nc(C(F)(F)F)c(C)c1OCC(=O)c1ccccc1 | 95 to 97 °C |
| CCOC(=O)Cc1csc(-c2cc3cccc(N(C)S(=O)(=O)c4cccs4)c3[nH]2)n1 | 117 to 118 °C |
| CC(C)NN=C(N)Nc1c(Cl)cccc1Cl | 227 to 228 °C |
| COC(=O)c1ccc(OC)c(N(C(C)=O)c2cc(Cl)cc(Cl)c2)c1 | 100 to 101 °C |
| CCOCCn1cc2c(C3C(=O)Nc4ccc(Cl)cc43)nc(NCCN(C)C)nc2n1 (centres undefined) | 293 to 295 °C |
| NCCc1cccc(N2C(=O)N(c3cc(Cl)ccc3Cl)Cc3cnc(Nc4ccccc4)nc32)c1 | 120 to 123 °C |
| C[C@H]1N=C(c2ccccc2F)c2cc([N+](=O)[O-])ccc2NC1=O | 120 °C |
| COc1ccc(CS[C@H]2C[C@@H](C(N)=O)N(C)C2)cc1 | 113 to 114 °C |
| O=C(Nc1nc(-c2ccco2)c(C(=O)C2CCOCC2)s1)c1ccc(F)cc1 | 131 to 132 °C |
| CC(=O)c1cn(S(=O)(=O)c2ccccc2)c2nccc(OC3CCCCC3)c12 | 107 to 109 °C |

| SMILES | melting point |
| --- | --- |
| CC(C)(C)OC(=O)NC(Cc1ccccc1)C(O)CNCC(O)C(Cc1ccc(OCC(=O)N2CCOCC2)cc1)NC(=O)OC(C)(C)C (centres undefined) | 118 to 120 °C |
| O=C(Nc1ccc(Cl)cc1)c1cc(Cl)c2cccnc2c1O | 214 to 216 °C |
| CCCCCCCCc1ccc(C(=O)Cc2cccc(C(=O)O)c2)cc1 | 103 to 110 °C |
| CC(C)OC(=O)Cn1c(=O)n(C)c(=O)n(-c2cc(N3C(=O)c4cccc(F)c4C3=O)c(F)cc2Cl)c1=O | 119 to 125 °C |
| CN1C(=O)CN=C(c2ccccc2)c2cc(NO)ccc21 | 211 to 213 °C |
| CC(=O)Nc1ccc(C(C)=O)cc1CN(C)C | 68 to 72 °C |
| COc1c(C)c2c(c(N)c1C/C=C(\C)CCC(=O)O)C(=O)OC2 | 130 to 131 °C |
| Cc1ccc(-c2nc(Cl)c3ccccc3n2)cc1 | 113 to 115 °C |
| O=C(c1ccc(S)cc1)c1cccc([N+](=O)[O-])c1 | 114 °C |
| COC(=O)c1cc2cc(OCCn3ccnc3)ccc2s1 | 127 to 129 °C |
| CC(C)OCC(=O)NC1CCN(CC23CC(c4ccccc42)c2ccc(Cl)cc23)CC1 (centres undefined) | 50 to 53 °C |
| CN(C)c1ccc(C#N)nn1 | 150 °C |
| O=C(O)c1c(Cl)cc(N2C(=O)N3CCCC3(Cc3ccc(Br)cc3)C2=O)cc1Cl (centres undefined) | 152 °C |
| O=C(Nc1ccc2c(c1)NCCC2)c1cc2cc(C(F)(F)F)ccc2n1Cc1cccc(F)c1 | 203 to 204 °C |
| COc1ccc(N2CCN(c3ccc(-n4cnn(CC(F)(F)F)c4=O)cc3)CC2)cc1 | 208 °C |
| COC(=O)C1CCC2C3CCC4CC(O)C(Br)CC4(C)C3CCC12C (centres undefined) | 195 to 198 °C |
| CC12CCC3C(CCC4(O)CC(O)CCC34CO)C1(O)CCC2c1ccnnc1 (centres undefined) | 138 to 140 °C |
| O=C(Cc1cc(F)ccc1[N+](=O)[O-])N1CCN(c2nsc3ccccc23)CC1 | 72 °C |
| CCOc1nc(=O)n(-c2cc(C(=O)OC)c(Cl)cc2F)c(=O)n1C | 45 to 47 °C |
| CON=CCN1C(=O)C(NC(=O)c2cc3ccccc3[nH]2)N=C(c2ccccc2)c2ccccc21 (racemic) | 169 to 174 °C |
| OCC(Nc1nc(-c2ccc(Br)cc2)cs1)C(F)(F)F (centres undefined) | 133 to 134 °C |
| O=C1C(=Cc2ccco2)CCc2cc(OCCc3c[nH]cn3)ccc21 | 57 to 60 °C |
| CCS(=O)(=O)Nc1cc(-n2nc3n(c2=O)CCCC3)c(F)cc1C(N)=S | 220 °C |
| CC(C)(C)OC(=O)N[C@@H](Cc1ccccc1)[C@H]1CO1 | 126 °C |
